Test results from ChEMBL document CHEMBL1201862, “PubChem BioAssay data set” (2004).
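Interpolation was linear, between the two tested concentrations surrounding the appropriate level; five concentrations were tested over 48 hours in 96-well plates. Abbreviation: GI50, concentration required for 50% inhibition of growth.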 Calls of active or inactive are those of the source. No stated cut-off is given here; in the data, active = GI50 up to about 1.1 µM and inactive = higher.

Assays:
Assay in all cases: NCI tumour cell line growth inhibition, 48 h
HCT-15 = system: HCT-15
SF-295 = system: SF-295
UACC-62 = system: UACC-62
SF-268 = system: SF-268
MDA-MB-231 = system: MDA-MB-231
M14 = system: M14
KM12 = system: KM12
UACC-257 = system: UACC-257
RXF 393 = system: RXF 393
BT-549 = system: BT-549
A498 = system: A498
OVCAR-8 = system: OVCAR-8
HT-29 = system: HT-29
Hs-578T = system: Hs-578T
DU-145 = system: DU-145
HOP-92 = system: HOP-92
HCT-116 = system: HCT-116
HCC 2998 = system: HCC 2998
RPMI-8226 = system: RPMI-8226
SF-539 = system: SF-539
SK-MEL-28 = system: SK-MEL-28
SN12C = system: SN12C
Malme-3M = system: Malme-3M
OVCAR-4 = system: OVCAR-4
786-0 = system: 786-0
U-251 = system: U-251
COLO 205 = system: COLO 205
ACHN = system: ACHN
NCI-H522 = system: NCI-H522
A549 = system: A549
SNB-75 = system: SNB-75
OVCAR-5 = system: OVCAR-5
NCI-H226 = system: NCI-H226
MDA-N = system: MDA-N
EKVX = system: EKVX
MOLT-4 = system: MOLT-4
NCI-H460 = system: NCI-H460
NCI-H23 = system: NCI-H23
HL-60 = system: HL-60
CCRF-CEM = system: CCRF-CEM
SK-OV-3 = system: SK-OV-3
TK-10 = system: TK-10
SW-620 = system: SW-620
LOX IMVI = system: LOX IMVI
CAKI-1 = system: CAKI-1
HOP-62 = system: HOP-62
NCI/ADR-RES = system: NCI/ADR-RES
T47D = system: T47D
MCF7 = system: MCF7
MDA-MB-435 = system: MDA-MB-435
SR = system: SR
K562 = system: K562
SK-MEL-2 = system: SK-MEL-2
UO-31 = system: UO-31
OVCAR-3 = system: OVCAR-3
SK-MEL-5 = system: SK-MEL-5
SNB-19 = system: SNB-19
PC-3 = system: PC-3
IGROV-1 = system: IGROV-1
KM-20L2 = system: KM-20L2
DMS-114 = system: DMS-114

Measured: GI50

COC(=O)c1ccc(CCc2cc(O)c(Br)cc2O)cc1
inactive: SF-295 14.1 µM | UACC-62 14.1 µM | SF-268 13.5 µM | MDA-MB-231 15.1 µM | M14 15.6 µM | KM12 15.1 µM | UACC-257 15.5 µM | RXF 393 16.6 µM | BT-549 4.63 µM | A498 22.1 µM | OVCAR-8 16 µM | HT-29 16.8 µM | Hs-578T 33.3 µM | DU-145 14.4 µM | HOP-92 12.9 µM | HCT-116 5.38 µM | HCC 2998 17.7 µM | RPMI-8226 3.35 µM | SF-539 8.3 µM | SK-MEL-28 17.5 µM | SN12C 15 µM | Malme-3M 15.7 µM | OVCAR-4 11.2 µM | 786-0 14.4 µM | U-251 12.6 µM | COLO 205 12.6 µM | ACHN 13.2 µM | NCI-H522 3.16 µM | A549 19.5 µM | SNB-75 26.8 µM | OVCAR-5 18.5 µM | NCI-H226 21.4 µM | MDA-N 15.7 µM | EKVX 16.9 µM | MOLT-4 2.42 µM | NCI-H460 16.8 µM | NCI-H23 10.4 µM | HL-60 1.86 µM | CCRF-CEM 1.98 µM | SK-OV-3 25.4 µM | TK-10 14.5 µM | SW-620 15 µM | LOX IMVI 13.7 µM | CAKI-1 10.3 µM | HOP-62 17.6 µM | NCI/ADR-RES 14.3 µM | T47D 18.6 µM | MCF7 13.5 µM | MDA-MB-435 8.49 µM | SR 3.2 µM | K562 1.74 µM | SK-MEL-2 18.9 µM | UO-31 6.47 µM | OVCAR-3 8.02 µM | SK-MEL-5 11.5 µM | SNB-19 17.4 µM | PC-3 8.02 µM | IGROV-1 14.6 µM
13.4 µM: HCT-15

CC(C)(C)c1cc(C2COC(=O)COCC(=O)OCCOCCOCCO2)cc(C(C)(C)C)c1O (configuration not stated)
> 100 µM: HCT-15
inactive: SF-295 23.6 µM | UACC-62 27.2 µM | SF-268 18.2 µM | MDA-MB-231 44.6 µM | M14 19.4 µM | KM12 > 100 µM | UACC-257 > 61.7 µM | RXF 393 20.7 µM | BT-549 > 57.5 µM | A498 > 51.4 µM | OVCAR-8 62.4 µM | HT-29 98.9 µM | Hs-578T 17.9 µM | DU-145 21 µM | HOP-92 22.9 µM | HCT-116 > 100 µM | HCC 2998 14.5 µM | RPMI-8226 > 100 µM | SF-539 45.5 µM | SK-MEL-28 19.2 µM | SN12C 14.4 µM | Malme-3M > 100 µM | OVCAR-4 > 100 µM | 786-0 21.4 µM | U-251 34.3 µM | COLO 205 > 100 µM | ACHN 19.6 µM | NCI-H522 > 52.8 µM | A549 > 31.6 µM | SNB-75 16.1 µM | OVCAR-5 28.4 µM | NCI-H226 > 100 µM | MDA-N 19.6 µM | EKVX > 75.7 µM | MOLT-4 > 100 µM | NCI-H460 30.9 µM | NCI-H23 > 77.6 µM | HL-60 > 31.6 µM | CCRF-CEM > 100 µM | SK-OV-3 24.9 µM | TK-10 20.4 µM | SW-620 > 65.8 µM | LOX IMVI 31 µM | CAKI-1 24.7 µM | HOP-62 46.7 µM | NCI/ADR-RES > 100 µM | T47D > 100 µM | MCF7 > 100 µM | MDA-MB-435 20.5 µM | SR 58.1 µM | K562 > 100 µM | SK-MEL-2 32.1 µM | UO-31 18.6 µM | OVCAR-3 > 100 µM | SK-MEL-5 > 100 µM | SNB-19 > 100 µM | PC-3 40.2 µM | IGROV-1 > 100 µM

C[N+](C)(C)CC1Cc2ccccc2C1=O (configuration not stated)
4.53 µM: HCT-15
inactive: SF-295 > 10 µM | UACC-62 > 10 µM | SF-268 > 10 µM | MDA-MB-231 > 10 µM | M14 2.75 µM | KM12 > 10 µM | UACC-257 > 10 µM | RXF 393 > 9.31 µM | BT-549 > 10 µM | A498 > 10 µM | OVCAR-8 1.89 µM | HT-29 6.38 µM | Hs-578T > 10 µM | DU-145 > 10 µM | HOP-92 3.91 µM | HCT-116 1.72 µM | HCC 2998 > 10 µM | RPMI-8226 1.48 µM | SF-539 > 10 µM | SK-MEL-28 5.58 µM | SN12C > 7.45 µM | Malme-3M 2.11 µM | OVCAR-4 2.72 µM | 786-0 3.32 µM | U-251 > 10 µM | COLO 205 2.93 µM | ACHN > 10 µM | NCI-H522 2.36 µM | A549 > 10 µM | SNB-75 > 10 µM | OVCAR-5 > 10 µM | NCI-H226 > 10 µM | MDA-N 3.72 µM | EKVX > 10 µM | MOLT-4 1.71 µM | NCI-H460 > 10 µM | NCI-H23 > 10 µM | HL-60 1.56 µM | CCRF-CEM 1.66 µM | SK-OV-3 > 10 µM | TK-10 > 8.36 µM | SW-620 1.87 µM | LOX IMVI 4.41 µM | CAKI-1 > 4.8 µM | HOP-62 > 10 µM | NCI/ADR-RES > 4.78 µM | T47D 2.51 µM | MCF7 2.07 µM | MDA-MB-435 > 6.87 µM | SR 1.22 µM | K562 1.4 µM | SK-MEL-2 > 9.14 µM | UO-31 > 10 µM | OVCAR-3 > 5.81 µM | SK-MEL-5 > 10 µM | SNB-19 > 10 µM | PC-3 > 10 µM | IGROV-1 > 10 µM

CC1=CC(=O)c2[nH]c3ccccc3c2C1=O [MURRAYAQUINONE A]
inactive: OVCAR-8 4.02 µM | RPMI-8226 5.96 µM | OVCAR-4 4.16 µM | A549 > 25 µM | OVCAR-5 5.4 µM | KM-20L2 > 25 µM | HOP-62 > 25 µM | DMS-114 4.26 µM | OVCAR-3 4.53 µM | SNB-19 > 25 µM
